Test results from patent US11278548B2, “Methods and compositions for reducing side effects in chemotherapeutic treatments” (Galderma Research and Development, priority 2017, dated 2022).
“Also recorded” adds a separate entry of the source.

Test system: acneiform rash

## Brc1c(NC2=NCCN2)ccc2nccnc12 [brimonidine, (5-bromo-quinoxalin-6-yl)-(4,5-dihydro-1H-imidazol-2-yl)-amine]
18 EGFRI-treated patients, CTCAE v4.0 grading, followed for 12 to 24 weeks, n=17, most also on antibiotics or corticosteroids
  treated patients with a decrease in rash severity: 94%
18 EGFRI-treated patients, followed for 12 to 24 weeks
  adverse events to brimonidine: not reported; also recorded: no adverse events
EGFRI-treated patients, 83% also receiving systemic antibiotics, topical antibiotics or corticosteroids
  acneiform rash outcome (in words): improvement in acneiform rash in all patients
Majority of treated patients
  dose modification of anticancer therapies: did not require dose modification
